Experimental data taken from patent US8334403B1, “C-lysine conjugates as pH-controlled, light-activated reagents for double stranded DNA cleavage and associated methods” (Florida State University Research Foundation, Inc., priority 2005, dated 2012).
Several values for one entry are separate records, joined by “and”; a condition that tells them apart may be missing. Equal values may be shown once.

How the values were obtained:
pBR322 plasmid DNA = assay: Plasmid relaxation assay: DNA photocleavage of supercoiled plasmid under UV irradiation; format: biochemical
Experimental: General information. ^1H, ^13C and ^19F NMR were collected on a Varian Gemini 300 MHz NMR spectrometer and a Bruker 300 MHz NMR spectrometer. Mass spectrometry data was collected on a Jeol JMS-600H. UV spectra were recorded on a Shimadzu UV-2100. Fluorescence spectra were obtained with SPEX FluoMax spectrofluorimeter using right-angle geometry. pH was adjusted with AB 15 plus pH meter (Accument) after standardization at 25° C. All buffers were prepared and pH-adjusted at room temperature (25° C.). Plasmid DNA Photocleavage. pBR322 plasmid DNA (4,361 b/p; from BioLabs Inc., 1 μg/μL solution in 10 mM Tris-HCl (pH 8.0), and 1 mM EDTA buffer) was diluted to a concentration of 0.01 μg/μL. The solution containing cleavage agent, DNA (30 μM/bp) in 20 mM sodium phosphate buffer was incubated for 1 hour at 30° C. Samples were placed on ice at a distance of 20 cm from 200 W Hg—Xe lamp (Spectra-Physics, Laser & Photonics Oriel Instruments with long pass filter with 324 nm cut-off wavelength). Electrophoretic Analysis. The gel electrophoresis was carried out in 1×TBE buffer at 80 V using Miligel FisherBiotech Horizontal Electrophoresis System. All gels were run on 1% agarose slab gels. Before loading, the DNA samples were mixed with 0.33 volume of tracking dye containing bromophenol blue (0.25%) and glycerol (30%) in water. After staining in ethidium bromide solution (2 μg/ml) for 1 hour, the gel was washed with water and pictures were taken with Polaroid 3000ISO type 667 film. The relative quantities of the supercoiled, nicked, and linear DNA were calculated by integrating the “area” of each spot by the image analyzer software Total/Lab (Nonlinear Dynamics Ltd., UK). The amount of supercoiled DNA was multiplied by factor of 1.4 to account for reduced ethidium bromide intercalation into supercoiled DNA. pH titration by ^1H-NMR. pH* of compound 8 (3 mM) solution in D2O containing 0.05 wt % 3-(trimethylsilyl)propionic-2,2,3,3-d4 acid, sodium salt (TSP-d4) was adjusted with 10 wt % DCI and NaOD in D2O at 25° C. under argon purged condition. Spectrometric determinations of pKa. pH of 10 μM of compound solution in H2O was adjusted with 10, 100 mM HCl (aq) and NaOH (aq) solution under argon purged condition. Excitation wavelength was 330 nm and polymethacrylate fluorimeter cuvettes were used. Absorbance and fluorescence titration with DNA. The concentrations of calf thymus DNA stock solution was determined spectophotometrically using the following molar absorptovity values: 1.32×10^4 M^−1 cm^−1 (per base pair) at 260 nm. All experiments were done in 20 mM sodium phosphate buffer at 25° C. and polymethacrylate fluorimeter cuvettes were used. The same amount of DNA was added to both sample and reference cuvettes during UV/Vis titration. Determination of excited state lifetimes. The concentration of compound solution was 10 μM in 20 mM sodium phosphate buffer. The photoluminescence lifetime measurements were conducted by exciting the samples with the output of a Nd:VO—4 (Spectra-Physics Vanguard, 2 W, 532 nm, 76 MHz, 10 ps) pumped R6G dye laser (Coherent 702-1). The output of the dye laser (600 nm, Rhodamine 6G) was cavity dumped at 1.9 MHz and frequency doubled using a BBO crystal to excite the fluorophore (the excitation wavelength used was 290 nm). Samples were excited with <1 mW power and the emission was collected at right angles onto a Chromex S3 500 is 0.5 m imaging monochromator with a 50 g/mm grating and 0.5 nm resolution. Output of the monochromator is focused into a Hamamatsu C5680 streak camera operating at a 20 ns window for the fluorophore. Intensity analysis was carried out by integrating the spectral profile in time on the streak camera. Lifetime analysis over 6-7 lifetimes of the fluorophore was conducted by binning the photoluminescence intensity collected on the streak camera over a 20 nm spectral window at the centroid value of the emission of the fluorophore. Ethidium bromide displacement. […]

[1] = Fluorometric (emission) determination of pKa; format: physicochemical
Experimental: (§1) General information. ^1H, ^13C and ^19F NMR were collected on a Varian Gemini 300 MHz NMR spectrometer and a Bruker 300 MHz NMR spectrometer. Mass spectrometry data was collected on a Jeol JMS-600H. UV spectra were recorded on a Shimadzu UV-2100. Fluorescence spectra were obtained with SPEX FluoMax spectrofluorimeter using right-angle geometry. pH was adjusted with AB 15 plus pH meter (Accument) after standardization at 25° C. All buffers were prepared and pH-adjusted at room temperature (25° C.). Plasmid DNA Photocleavage. pBR322 plasmid DNA (4,361 b/p; from BioLabs Inc., 1 μg/μL solution in 10 mM Tris-HCl (pH 8.0), and 1 mM EDTA buffer) was diluted to a concentration of 0.01 μg/μL. The solution containing cleavage agent, DNA (30 μM/bp) in 20 mM sodium phosphate buffer was incubated for 1 hour at 30° C. Samples were placed on ice at a distance of 20 cm from 200 W Hg—Xe lamp (Spectra-Physics, Laser & Photonics Oriel Instruments with long pass filter with 324 nm cut-off wavelength). Electrophoretic Analysis. The gel electrophoresis was carried out in 1×TBE buffer at 80 V using Miligel FisherBiotech Horizontal Electrophoresis System. All gels were run on 1% agarose slab gels. Before loading, the DNA samples were mixed with 0.33 volume of tracking dye containing bromophenol blue (0.25%) and glycerol (30%) in water. After staining in ethidium bromide solution (2 μg/ml) for 1 hour, the gel was washed with water and pictures were taken with Polaroid 3000ISO type 667 film. The relative quantities of the supercoiled, nicked, and linear DNA were calculated by integrating the “area” of each spot by the image analyzer software Total/Lab (Nonlinear Dynamics Ltd., UK). The amount of supercoiled DNA was multiplied by factor of 1.4 to account for reduced ethidium bromide intercalation into supercoiled DNA. pH titration by ^1H-NMR. pH* of compound 8 (3 mM) solution in D2O containing 0.05 wt % 3-(trimethylsilyl)propionic-2,2,3,3-d4 acid, sodium salt (TSP-d4) was adjusted with 10 wt % DCI and NaOD in D2O at 25° C. under argon purged condition. Spectrometric determinations of pKa. pH of 10 μM of compound solution in H2O was adjusted with 10, 100 mM HCl (aq) and NaOH (aq) solution under argon purged condition. Excitation wavelength was 330 nm and polymethacrylate fluorimeter cuvettes were used. Absorbance and fluorescence titration with DNA. The concentrations of calf thymus DNA stock solution was determined spectophotometrically using the following molar absorptovity values: 1.32×10^4 M^−1 cm^−1 (per base pair) at 260 nm. All experiments were done in 20 mM sodium phosphate buffer at 25° C. and polymethacrylate fluorimeter cuvettes were used. The same amount of DNA was added to both sample and reference cuvettes during UV/Vis titration. Determination of excited state lifetimes. The concentration of compound solution was 10 μM in 20 mM sodium phosphate buffer. The photoluminescence lifetime measurements were conducted by exciting the samples with the output of a Nd:VO—4 (Spectra-Physics Vanguard, 2 W, 532 nm, 76 MHz, 10 ps) pumped R6G dye laser (Coherent 702-1). The output of the dye laser (600 nm, Rhodamine 6G) was cavity dumped at 1.9 MHz and frequency doubled using a BBO crystal to excite the fluorophore (the excitation wavelength used was 290 nm). Samples were excited with <1 mW power and the emission was collected at right angles onto a Chromex S3 500 is 0.5 m imaging monochromator with a 50 g/mm grating and 0.5 nm resolution. […]

UMRC3 cells = assay: RCC cell proliferation assay, UMRC3; format: cell-based; conditions: Homo sapiens, UMRC3, UV 350 nm 10 minutes, 72 hours
Experimental: (§2) FIG. 23 provides the results of cell proliferation assays using three different RCC cell lines: (a) UMRC3, (b) UMRC6 and (c) 786-O, and compounds I-5; RCC cells were resuspended in media and treated with UV radiation (350 nm) for 10 minutes with and without indicated compounds; control cells were exposed to the indicated compound 1-5 at final concentration of 10 μM; cell numbers determined after 72 hours as described in the SI Section;
(§3) The ability of compounds 1-5 to inhibit cell proliferation in three human clear cell renal cell carcinoma (RCC) cell lines was tested in the dark and under photoactivation (FIG. 23). No difference was detected in the control experiments between cells not exposed to UV versus those that were exposed to UV at 350 nm for 10 minutes in any of the three RCC cell lines tested (FIG. 23 A, B & C; first two columns).

UMRC6 cells = assay: RCC cell proliferation assay, UMRC6; format: cell-based; conditions: Homo sapiens, UMRC6, UV 350 nm 10 minutes, 72 hours
Experimental: as §2, §3

CT DNA = assay: Ethidium bromide displacement assay; format: binding, calf; conditions: 10 μM ethidium bromide, 10 μM CT DNA
Experimental: (§4) General information. ^1H, ^13C and ^19F NMR were collected on a Varian Gemini 300 MHz NMR spectrometer and a Bruker 300 MHz NMR spectrometer. Mass spectrometry data was collected on a Jeol JMS-600H. UV spectra were recorded on a Shimadzu UV-2100. Fluorescence spectra were obtained with SPEX FluoMax spectrofluorimeter using right-angle geometry. pH was adjusted with AB 15 plus pH meter (Accument) after standardization at 25° C. All buffers were prepared and pH-adjusted at room temperature (25° C.). Plasmid DNA Photocleavage. pBR322 plasmid DNA (4,361 b/p; from BioLabs Inc., 1 μg/μL solution in 10 mM Tris-HCl (pH 8.0), and 1 mM EDTA buffer) was diluted to a concentration of 0.01 μg/μL. The solution containing cleavage agent, DNA (30 μM/bp) in 20 mM sodium phosphate buffer was incubated for 1 hour at 30° C. […] The relative quantities of the supercoiled, nicked, and linear DNA were calculated by integrating the “area” of each spot by the image analyzer software Total/Lab (Nonlinear Dynamics Ltd., UK). […] Absorbance and fluorescence titration with DNA. The concentrations of calf thymus DNA stock solution was determined spectophotometrically using the following molar absorptovity values: 1.32×10^4 M^−1 cm^−1 (per base pair) at 260 nm. […]

[2] = Solubility / aggregation in water; format: physicochemical; conditions: higher pH values (~8)
Source text: The decrease in solubility leads to the apparent aggregation and distortion of potentiometric curves at the higher pH. This distortion prevents accurate curve fitting (see FIG. 25). Thus, we had to resort to alternative spectral methods. Fortunately, there is a selection of convenient procedures which provide complementary information which can be used for cross-checking the accuracy of the alternative approaches.

calf thymus (CT) DNA = assay: Fluorescence (emission) titration with DNA; format: binding; conditions: 10 μM, 20 mM phosphate buffer
Experimental: as §4

[3] = UV-absorption titration determination of pKa; format: physicochemical; conditions: absorption
Experimental: as §1

In the case of `Cl.Cl.NCCCC[C@H](N)C(=O)Nc1ccc(C#Cc2c(F)c(F)nc(F)c2F)cc1` [Compound 4, (S)-2,6-Diamino-hexanoic acid [4-(2,3,5,6-tetrafluoro-pyridin-4-ylethynyl)-phenyl]-amide dihydrochloride], the “decrease of total DNA cleavage activity on increasing phosphate buffer from 10 mM to 50 mM” value (pBR322 plasmid DNA; pH 8, 10 μM) is reported as 34%, the “unreacted DNA (Form I)” value (pBR322 plasmid DNA; pH 8, 3 minutes of irradiation, 15 μM, 30 μM/bp DNA) is reported as 86% and the DNA remains unreacted (pBR322 plasmid DNA; pH 8, after an hour of irradiation, 10 μM) is reported as about 60%. The “α-pKa lower than the pKa for alanine conjugate 6” value ([1]; difference to compound 6) was about 0.5 units, the “decrease in the basicity of the α-amino group relative to phenyl conjugate 8” value ([1]; difference to compound 8) was 0.5-0.6 pKa units and the pKa1 ([1]; emission, α-amino group (4, 6), ε-amino group (7), dihydrochloride) was 7.0 and 6.98. The mortality at 10 µM (UMRC3 cells) was 94%, the mortality at 10 µM (UMRC6 cells) was 90% and the “displacement of intercalated ethidium bromide from its complex with DNA” value (CT DNA) was “does not lead to the displacement”. The aggregation and precipitation [2] was “does not aggregate and precipitate”, the “change in fluorescence upon DNA titration” value (calf thymus (CT) DNA) was “increase in fluorescence” and the pKa1 ([3]; α-amino group (4, 6), ε-amino group (7)) was 6.9. For the same compound, the pKa2 ([3]; ε-amino group) was “-/9.5”.
